Experimental data reported in US8785478B2, “Viral polymerase inhibitors” (Biota Scientific Management Pty Ltd, priority 2012, dated 2014).
Converted amounts (≈) assume the structure as drawn. Where two headings read alike, the source gives them in different places.

Legend:
[1] = Cytotoxicity analysis (MTT); type: cell-based; conditions: genotype 1b replicon cells, three days, read-out: G1b (CC50 μM)
Protocol: Cytotoxicity of compounds against genotype 1b replicon cells was determined via metabolism of the vital dye 3-(4,5-dimethylthiaxol-2-yl)-2,5-diphenyltetrazolium bromide (MTT, for example see Watanabe et al., Journal of Virological Methods 1994 48:257-265). Plates were prepared as described for the HCV Replicon assay and cytotoxicity of the test article was evaluated after three days. MTT was added to assay plates followed by three hour incubation at 37° C. Wells were aspirated to dryness and the formazan dye dissolved by the addition of isopropanol. Absorbance values were read at 540/690 nm). The compound concentration that reduced cell viability by 50% (CC50) was calculated using non-linear regression.

[2] = tested on: genotype 1b (Con 1) subgenomic replicon cell line; test: HCV replicon assay, genotype 1b (Renilla luciferase); type: cell-based; conditions: Hepatitis C virus; genotype 1b replicon; read-out: G1b (EC50 μM)
Protocol: (§1) A genotype 1b (Con 1) subgenomic replicon cell line based on Blight et al., Science 2000 290: 1972-1974, modified to express a Renilla luciferase reporter gene was used to assess antiviral activity of test compounds. Cell cultures were maintained in a sub-confluent state in DMEM with glutamine, 10% heat-inactivated foetal bovine serum (FBS) and G418 (Geneticin®).
(§2) For assay, cells were seeded at a density of 7000 cells/well into 96 well tissue culture trays in culture media lacking G418. Compounds were tested in a three fold dilution series, for example starting from 50 uM. After 72 hours incubation at 37° C. and 5% CO2, Renilla luciferase activity was quantified via the Promega Renilla Luciferase or Renilla-Glo™ Luciferase Assay Systems (Promega corporation. The same method was employed for replicon assays using subgenomic genotype 1a (H77) and 2a (JFH-1) replicon cell lines with a seeding cell density of 5000 cells/well for the 2a cell lines.
(§3) The compound concentration that reduced luciferase activity by 50% (EC50) was calculated using non-linear regression.

[3] = tested on: subgenomic genotype 1a (H77) replicon cell line; test: HCV replicon assay, genotype 1a (Renilla luciferase); type: cell-based; conditions: Hepatitis C virus; genotype 1a replicon; read-out: G1a (EC50 μM)
Protocol: as §1, §2, §3

[4] = Aqueous solubility (laser nephelometry); type: physicochemical; conditions: for solubility at 30 min: aqueous assay buffer with 1% DMSO, kinetic from dmso stock, 30 minute incubation at 25° C.
Protocol: Test compounds prepared in DMSO were screened in duplicate over a range of concentrations (1.6-100 ug/mL) in different aqueous media (for example a pH6.5 buffers which are relevant to the stomach and upper regions of the small intestine and therefore important when predicting the amount of drug likely to be in solution following oral administration). Test compounds were serially diluted in 100% DMSO ranging from 10-0.16 mg/mL. These titrated DMSO stocks were then further diluted 1:100 with assay buffer and added to test plates (UV Star Griener 384 well plates), maintaining the DMSO concentration at 1%.

1b (BK) NS5BΔ21 = target: T1, 1b (BK) NS5BΔ21 (Hepatitis C virus genotype 1b, UniProt P26663); test: HCV Polymerase Inhibition Assay; type: biochemical; conditions: NS5B G1b (IC50 μM), genotype 1b polymerase
T1 construct: 100 nM, 1b (BK) NS5BΔ21
T1 sequence (P26663 2420-2989, stated change not applied): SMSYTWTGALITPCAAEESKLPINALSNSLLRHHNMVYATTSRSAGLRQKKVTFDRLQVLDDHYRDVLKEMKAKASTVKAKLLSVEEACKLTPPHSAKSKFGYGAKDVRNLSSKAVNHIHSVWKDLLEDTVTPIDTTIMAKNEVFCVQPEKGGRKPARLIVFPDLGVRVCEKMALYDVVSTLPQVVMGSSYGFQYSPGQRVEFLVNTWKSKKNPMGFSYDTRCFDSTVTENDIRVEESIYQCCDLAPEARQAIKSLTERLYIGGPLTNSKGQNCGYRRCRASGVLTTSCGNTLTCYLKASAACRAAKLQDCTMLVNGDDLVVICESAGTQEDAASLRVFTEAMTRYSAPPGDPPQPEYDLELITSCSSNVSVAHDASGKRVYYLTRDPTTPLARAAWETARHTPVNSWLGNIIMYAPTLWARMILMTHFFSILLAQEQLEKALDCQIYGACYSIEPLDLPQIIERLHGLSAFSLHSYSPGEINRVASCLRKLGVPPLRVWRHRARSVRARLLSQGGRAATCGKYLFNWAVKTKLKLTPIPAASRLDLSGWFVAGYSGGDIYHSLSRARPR
Protocol: HCV polymerase reactions were carried out using a modified method of Howe et al., Antimicrobial Agents and Chemotherapy 2004 48(12): 4813-4821. Reactions contained a final concentration of, 0.5% DMSO, 100 nM, 1b (BK) NS5BΔ21, 20 mM Tris-HCl pH 7.5, 5 mM MgCl2, 5 mM MnCl2, 3 mM DTT, 0.05% BSA, 0.2 U/μL RNasin, 10 μg/mL Poly(rC) template, GTP (at Km) and 0.05 μCi/μL ^33P-GTP in a total reaction volume of 50 μL. Compounds were tested in a three fold dilution series, for example starting from 50 μM. Reactions were initiated with the addition of GTP and terminated after 90 min with 50 μL ice cold 0.2 M EDTA. Terminated reactions were transferred to DEAE 96-well filter plates, unincorporated nucleotides washed from the filters and 50 μL scintillation fluid added prior to reading on a scintillation counter. The compound concentration that reduced ^33P-GTP incorporation by 50% (IC50) was calculated using non-linear regression.

[5] = tested on: subgenomic genotype 2a (JFH-1) replicon cell line; test: HCV replicon assay, genotype 2a (Renilla luciferase); type: cell-based; conditions: Hepatitis C virus; genotype 2a replicon; read-out: G2a (EC50 μM)
Protocol: as §1, §2, §3

Q: For `CCN(c1cc2nn(-c3ccc(C)nc3)c(C(=O)NC)c2cc1C1CC1)S(C)(=O)=O` [Compound A, 5-Cyclopropyl-6-[ethyl(methylsulfonyl)amino]-N-methyl-2-(6-methylpyridin-3-yl)-2H-indazole-3-carboxamide, reference compound], which CC50 at 3 days [1] is on record?
A: > 50 µM

Q: What about the EC50 [2] of the same compound?
A: 0.774 µM

Q: And the EC50 [3]?
A: 3.17 µM

Q: And the solubility at 30 min ([4]; aqueous buffer, pH 6.5, 1% DMSO, read-out: Solubility pH 6.5)?
A: 6.3 to 12.5 µg/mL (≈ 14.7 to 29.2 µM)

Q: And the solubility at 30 min ([4]; simulated gastric fluid, pH 2, 1% DMSO, read-out: Solubility pH 2)?
A: < 1.6 µg/mL

Q: And the solubility in words ([4]; at both pH2 and pH 6.5)?
A: very poorly soluble

Q: What about the IC50 (1b (BK) NS5BΔ21) of the same compound?
A: 3.36 µM

Q: What about the EC50 [5] of the same compound?
A: 3.59 µM
